Laboratory results published in patent publication US9127027B2, “Epoxyeicosatrienoic acid analogs and methods of making and using the same” (The Medical College of Wisconsin, Inc., priority 2011, dated 2015).
Like-named read-outs stand apart in the source and are kept apart here.

Legend:
[1] = system: Spontaneously Hypertensive Rats (SHR); assay: Telemetry blood pressure and heart rate in spontaneously hypertensive rats; format: in vivo, rat; settings: for blood pressure after two weeks of treatment: 2 mg/d i.p. osmotic pump, vehicle 141±3.0; for heart rate: 2 mg/d i.p., vehicle 331±17.0
Description: (§1) Telemetry Blood Pressure Measurement. To accurately detect changes in blood pressure and heart rate, telemetry transmitters (Data Sciences Inc., St. Paul, Minn.) were implanted in rats one week prior to the experimental period according to manufacturer's specifications while under pentobarbital anesthesia. In brief, an incision was made to expose the femoral artery that was occluded to allow insertion of the transmitter catheter. The catheter was secured in place with tissue glue and the transmitter body was sutured in place and the incision line was closed. Rats were allowed to recover from surgery and were returned to individual housing. A baseline arterial pressure was recorded for prior to the experimental period. Mean arterial pressure was continuously recorded throughout the experimental period.
Telemetry transmitters were implanted into male SHR as described. After the surgical recovery period, baseline mean arterial pressure was recorded. In this series of experiments, EET analogs were administered by osmotic pump (2 mg/d, i.p.) and blood pressure was continuously monitored.

[2] = system: angiotensin II induced hypertensive rats; assay: Angiotensin II hypertension: telemetry blood pressure, heart rate, sodium and protein excretion; format: in vivo, rat; settings: Ang II hypertension; for blood pressure at end of two-week treatment: 2 mg/d i.p., vehicle 150±3.2; for heart rate: vehicle 396±25.0
Description: as §1
Telemetry transmitters were implanted into male Sprague-Dawley rats (225-275 g) as described. After recording basal blood pressure, osmotic pumps were implanted (s.c.) to deliver angiotensin at a dose of 60 ng/min. EET analogs were administered by an osmotic pump (2 mg/d, i.p.) and blood pressure was continuously monitored.
Animals were placed in a metabolic cage and urine was collected in a conical tube. Samples were stored at −80° C. until assayed. Urinary protein excretion was assessed as an index for renal injury. Protein was determined by the Bradford colorimetric method and creatinine was determined by the picric acid colorimetric method.

[3] = system: bovine coronary artery; assay: Vasorelaxant activity in bovine coronary artery rings precontracted with U-46619; format: cell-based; settings: for Vascular Relax. % (10 μM): 100% relaxation = basal pre-U-46619 tension; for EC50: Bos taurus
Procedure: Vasorelaxant activity was measured in bovine coronary artery. Bovine hearts were obtained and the left anterior descending coronary artery was dissected and cleaned of connective tissue. Vessels of 1 mm diameter were cut into rings of 3 mm width as previously described (3, 27, 39). […] The vessels were suspended from a pair of stainless steel hooks in a 6-ml water-jacketed organ chamber. […] One hook was anchored to a steel rod and the other hook to a force transducer (model FT-03C; Grass Instruments, West Warwick, R.I.). Tension of the vessel was measured by an ETH-400 bridge amplifier, and the data were acquired with a MacLab 8e analog-to-digital converter and MacLab software version 3.5.6 (AD Instruments, Milford, Mass.) and stored on a Macintosh computer for subsequent data analysis.
Basal tension was set at the length-tension maximum of 3.5 g and equilibrated for 1.5 h. KCl (40 mM) was added to the chamber until reproducible maximal contractions were maintained. […] Cumulative additions of compounds were added to the chamber. Between concentration-response curves, the chambers were rinsed with fresh Krebs buffer, 40 mM KCl was administered to determine the maximum contraction, and the vessels were rinsed. Consecutive concentration-response curves were performed with 14,15-EET followed by a concentration-response curve to a compound. The experiment was always repeated with the order of the agonists reversed. […] The relaxation was plotted versus compound concentration and the EC50 determined utilizing statistical software.

[4] = molecular target: Human recombinant sEH (Homo sapiens (Human), UniProt P34913); assay: Soluble epoxide hydrolase inhibition (PHOME fluorescent substrate); format: biochemical
Chain of Human recombinant sEH (P34913 whole entry): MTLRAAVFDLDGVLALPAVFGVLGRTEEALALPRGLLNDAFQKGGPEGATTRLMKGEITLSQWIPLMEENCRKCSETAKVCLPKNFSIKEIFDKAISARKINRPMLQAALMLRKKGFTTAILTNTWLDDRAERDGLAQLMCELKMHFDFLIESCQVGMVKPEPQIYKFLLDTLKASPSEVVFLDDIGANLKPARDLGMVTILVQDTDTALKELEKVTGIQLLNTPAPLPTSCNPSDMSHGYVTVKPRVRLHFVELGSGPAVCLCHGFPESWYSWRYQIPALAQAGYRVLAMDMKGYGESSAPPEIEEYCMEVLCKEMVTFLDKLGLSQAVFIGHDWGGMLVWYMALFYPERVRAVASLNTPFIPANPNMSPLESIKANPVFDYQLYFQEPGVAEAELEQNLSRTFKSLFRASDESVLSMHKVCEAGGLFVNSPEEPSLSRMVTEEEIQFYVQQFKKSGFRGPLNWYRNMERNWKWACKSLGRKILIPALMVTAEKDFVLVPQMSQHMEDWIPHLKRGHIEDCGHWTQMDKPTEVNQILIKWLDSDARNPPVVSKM
Procedure: Compounds were tested for their ability to inhibit recombinant soluble epoxide hydrolase (sEH) protein. The assay utilizes (3-Phhenyl-oxiranyl)-acetic acid cyano-(6-methoxy-naphthalen-2-yl)-methyl ester (PHOME), a sensitive substrate for sEH that can be used to monitor the activity of both human and murine enzymes. […] Human recombinant sEH was incubated with substrate and compounds ranging in concentration from 0.1 to 1000 nM.

[5] = system: Wistar-Kyoto (WKY) rats administered cisplatin; assay: Cisplatin-induced nephrotoxicity in rats pretreated with EET analogs; format: in vivo, rat; settings: for BUN: day 5 after cisplatin 7 mg/kg i.p., vehicle 241±51; for urinary NAG / plasma creatinine (PCr) / KIM-1 urinary excretion: day 5 after cisplatin; for urinary NAG: vehicle 3.0±0.6; for plasma creatinine (PCr): vehicle 3.1±0.2; for KIM-1 urinary excretion: vehicle 296±94; for cisplatin-induced proteinuria: vehicle 53±5; for reductions in renal mRNA expressions of inflammatory markers (TNF-α, IL-6, IL-1β) / reduction in elevated renal expressions of GRP78 and caspase 12 mRNAs: cisplatin-administered rats; for reduction in elevated renal expressions of GRP78 and caspase 12 mRNAs: vs vehicle treatment; for decrease in kidney expression of NOX1 and gp91phox mRNAs / reduction in urinary excretion of NAG and KIM-1 / reduction of cisplatin-induced proteinuria / reductions in elevated serum creatinine and BUN: vs vehicle-treated cisplatin rats
Description: Experiments were approved and carried out according to the guidelines of the Institutional Animal Care and Use Committee, Medical College of Wisconsin, Milwaukee, USA. Male Wistar-Kyoto (WKY) rats weighing 180-200 g (Charles River, Mass., USA). All animals were kept in a temperature-controlled environment with a 12-h light/dark cycle and were allowed free access to food and water at all times. An acclimatization period of 6 days was allowed for the rats before experimentation. The rats were assigned into four groups. Group 1 (WKY, n=5-7): Rats received drinking water ad libitum for seven days and on day 7 DMSO (Sigma Aldrich, St. Louis, Mo., USA) was administered (300-500 μl i.p). […] Group 2 (CP+Vehicle, n=5-7): Rats were pretreated with vehicle (0.05% ethanol and 0.1% PEG-400 v/v) in drinking water for seven days and then on day 7 CP was administered (7 mg/kg i.p.) followed by another five days treatment with vehicle. Group 3 (CP+EET-A, n=5-7): These rats are pretreated with the EET analog EET-A (10 mg/kg/day p.o.) for seven days in drinking water and then on day 7 administered CP as a single injection (7 mg/kg i.p.) followed by another five days treatment with EET-A. Group 4 (CP+EET-B, n=5-7): Rats of this group are pretreated with another EET analog EET-B (10 mg/kg/day) for 7 days in drinking water and then on day 7 CP was administered as a single injection (7 mg/kg i.p.) followed by another five days treatment with EET-B. Rats of groups 2, 3 and 4 had free access to vehicle, EET-A and -B in drinking water, respectively. One day before the rats were sacrificed, urine of each rat was collected over a 24-h period, and the volume was measured. Five days after CP or DMSO administration, rats were anesthetized for blood sample collection followed by euthanasia and tissue collection. Urine and plasma samples were kept frozen at −80° C. until analyzed. The kidneys were removed, washed with physiological saline and stored at −80° C. until used for RT-PCR analysis, thiobarbituric acid reactive substance (TBARS) measurement and caspase 3 activity assay. A part of the kidney also preserved in 10% buffered formalin for histological examination.
The levels of blood urea nitrogen (BUN) (BioAssay Systems, Hayward, Calif., USA) and serum creatinine (Cayman Chemical Company, Ann Arbor, Mich., USA) were measured spectrophotometrically using commercial kits. Urinary content of creatinine and protein were measured using commercial kits (Cayman Chemical Company, Ann Arbor, Mich., USA), and the activity of urinary N-acetyl-b-glucosaminidase (NAG) in the urine was measured by a kit from Diazyme (Diazyme Laboratories, Poway, Calif., USA). While urine content of kidney injury molecule-1 (KIM-1) was measured using ELISA (R&D Systems, Inc. Minneapolis, Minn., USA).
Malondialdehyde (MDA) is a thiobarbituric acid reactive substance (TBARS) that is formed as an end-product of lipid peroxidation and serves as an important index of oxidative stress. To determine the kidney MDA level, the rat kidney was homogenized with buffer containing 1.5% potassium chloride to obtain a 1:10 (w/v) whole kidney homogenate. Using a commercially available kit (Cayman Chemical Company, Ann Arbor, Mich., USA), MDA was measured spectrophotometrically after reaction with thiobarbituric acid. […]
Real-Time analysis was carried out to assess the expression of oxidative (gp91phox, NOX1, SOD1, SOD2, SOD3), inflammatory (TNF-α, IL-6, IL-1β), apoptotic (Bax, Bak, Bcl-2) and endoplasmic reticulum stress (GRP78, caspase 12) related genes in the kidney. Total RNA was isolated from kidney homogenate using TRIzol LS reagents (Invitrogen Life Technologies, Carlsbad, Calif., USA) according to the manufacturer's instructions. The isolated RNA was treated with RNase-free DNase (Invitrogen, Carlsbad, Calif., USA) to remove traces of genomic DNA contamination. […]

[6] = system: NCCIT cells; assay: Cell viability (alamar blue), cisplatin with concurrent EET-A; format: cell-based, human
Procedure: In this study, HEK293, U87MG, Hela cell-lines were obtained from the ATCC (Manassas, Va., USA) (HEK293, U87MG, Hela), and NCCIT was collected from Department of Pediatrics, UT Southwestern Medical Center at Dallas, Tex., USA. All cell lines were maintained in DMEM or RPIM with 10% fetal bovine serum and penicillin/streptomycin purchased from Life Technologies (Grand Island, N.Y., USA). Cisplatin was purchased from either Sigma (St. Louis, Mo., USA) or CalBiochem/EMD Biosciences (Billerica, Mass., USA). Cells were seeded in 96-well plates at 500 to 4,000 cells per well depends on cell type. […] Cell viability was measured by alamar blue assay using resazurin (Sigma Aldrich) according to the manufacturer's guidelines. Viability results were measured by fluorescence/absorbance in a 96-well plate reader from BMG Labtech (Cary, N.C., USA) and the IC50 was calculated by GraphPad Prism® software (GraphPad Software Inc, La Jolla, Calif., USA).

[7] = Table 2, read-out: Vascular relaxation EC50
[8] = bovine coronary artery, read-out: Vascular Relax. EC50
[9] = Table 1 head prints μM (Table 2 prints nM for same numbers), read-out: sEHi IC50
[10] = Table 2, read-out: SEHi activity IC50

CCCCCNC(=O)NCCCC/C=C\CCCCCCC(=O)N[C@@H](CC(=O)O)C(=O)O (stereo in doubt) [Compound 7, (S)-2-(13-(3-n-Pentylureido)tridec-8(Z)-enamido)succinic acid]
blood pressure after two weeks of treatment [1]: 131±2.0 mmHg
heart rate [1]: 316±23.0 BPM
blood pressure at end of two-week treatment [2]: 135±5.0 mmHg
heart rate ([2]; two weeks): 410±25.0 BPM
Vascular Relax. % (10 μM) [3]: 91%
Vascular relaxation % relaxation (10 μM) ([3]; Table 2): 91%
EC50 [3, 7]: 1.6 µM
EC50 [3, 8]: 1.6 µM

CCCCCNC(=O)NCCCC/C=C\CCCCCCc1nnn[nH]1 [Compound 20]
blood pressure after two weeks of treatment [1]: 137±1.0 mmHg
IC50 [4, 9]: 0.011 µM
IC50 [4, 10]: 0.011 µM
Vascular Relax. % (10 μM) [3]: 119%
Vascular relaxation % relaxation (10 μM) ([3]; Table 2): 119%
EC50 [3, 7]: 0.18 µM
EC50 [3, 8]: 0.18 µM

CCCCCCC(=O)N(CCCC/C=C\CCCCCCC1=NOS(=O)N1)C(C)C (stereo not drawn) [Compound 26]
blood pressure after two weeks of treatment [1]: 150±5.0 mmHg
heart rate [1]: 344±23.0 BPM
IC50 [4, 9]: > 0.5 µM
IC50 [4, 10]: > 0.5 µM
Vascular Relax. % (10 μM) [3]: 109%
Vascular relaxation % relaxation (10 μM) ([3]; Table 2): 109%
EC50 [3, 7]: 0.32 µM
EC50 [3, 8]: 0.32 µM

CCCCCCC(=O)N(CCCCCOc1cccc2sc(NC(C)=O)nc12)C(C)C [Compound 30, N-(5-(2-Acetamidobenzo[d]thiazol-4-yloxy)pentyl)-N-isopropylheptanamide]
blood pressure after two weeks of treatment [1]: 129±2.0 mmHg
heart rate [1]: 318±24.0 BPM
decrease in blood pressure compared to vehicle ([1]; two weeks treatment): 12 mmHg
blood pressure at end of two-week treatment [2]: 107±2.0 mmHg
sodium excretion (natriuresis) ([2]; two weeks, vehicle 1.9±0.7): 2.7 ± 0.3 mmol/day
heart rate ([2]; two weeks): 385±16.0 BPM
Vascular Relax. % (10 μM) [3]: 96%
Vascular relaxation % relaxation (10 μM) ([3]; Table 2): 96%

CCCCCNC(=O)NCCCC/C=C\CCCCCCC(=O)NC(CC(=O)[O-])C(=O)[O-].[Na+].[Na+] [EET-A, Sodium (S)-2-(13-(3-pentylureido)tridec-8(Z)-enamido)succinate]
kidney TBARS formation ([5]; 10 mg/kg/d p.o., after cisplatin, vehicle 16±2): 7 ± 1 µmol/g
BUN ([5]; 10 mg/kg/d p.o.): 108 ± 30 mg/dL
urinary NAG ([5]; 10 mg/kg/d p.o.): 0.5±0.1 U/d
plasma creatinine (PCr) ([5]; 10 mg/kg/d p.o.): 2.0 ± 0.2 mg/dL
KIM-1 urinary excretion ([5]; 10 mg/kg/d p.o.): 85 ± 29 ng/day
cisplatin-induced proteinuria ([5]; 10 mg/kg/d p.o.): 33 ± 8 mg/day
reductions in renal mRNA expressions of inflammatory markers (TNF-α, IL-6, IL-1β) [5]: 40-60%
reduction in elevated renal expressions of GRP78 and caspase 12 mRNAs [5]: 2-4 fold
decrease in kidney expression of NOX1 and gp91phox mRNAs [5]: 2-3 folds
reduction in urinary excretion of NAG and KIM-1 [5]: 30-50%
reduction of cisplatin-induced proteinuria [5]: ≥ 40%
reductions in elevated serum creatinine and BUN [5]: 30-50%

CCCCCCC(=O)N(CCCCCOc1cccc2sc(NC(=O)C(C)(C)C)nc12)C(C)C [EET-B, N-Isopropyl-N-(5-(2-pivalamidobenzo[d]thiazol-4-yloxy)pentyl)heptanamide]
BUN ([5]; 10 mg/kg/d p.o.): 120 ± 33 mg/dL
urinary NAG ([5]; 10 mg/kg/d p.o.): 0.6±0.2 U/d
plasma creatinine (PCr) ([5]; 10 mg/kg/d p.o.): 1.4 ± 0.2 mg/dL
KIM-1 urinary excretion ([5]; 10 mg/kg/d p.o.): 57 ± 13 ng/day
cisplatin-induced proteinuria ([5]; 10 mg/kg/d p.o.): 32 ± 3 mg/day
reductions in renal mRNA expressions of inflammatory markers (TNF-α, IL-6, IL-1β) [5]: 40-60%
reduction in elevated renal expressions of GRP78 and caspase 12 mRNAs [5]: 2-4 fold
decrease in kidney expression of NOX1 and gp91phox mRNAs [5]: 2-3 folds
reduction in urinary excretion of NAG and KIM-1 [5]: 30-50%
reduction of cisplatin-induced proteinuria [5]: ≥ 40%
reductions in elevated serum creatinine and BUN [5]: 30-50%

N.N.[Cl][Pt][Cl] [cisplatin]
IC50 ([6]; read-out: IC50 for cisplatin, with 0 ng/ml EET-A): 2.6 µM
IC50 ([6]; read-out: IC50 for cisplatin, with 1 ng/ml EET-A): 2.55 µM
IC50 ([6]; read-out: IC50 for cisplatin, with 10 ng/ml EET-A): 2.44 µM
